Measurements from patent US20230114865A1, “PHENYL PYRROLE AMINOGUANIDINE SALTS AND FORMULATIONS” (SYNACT PHARMA APS, priority 2021, published 2023).
Read-outs that look alike come from different tables or passages of the source. Marks after values point to notes of the source that are not given here.

Legend:
[1] = Solubility of additional AP1189 salts, HCl/KCl buffer 0.5 M pH 1.2; assay type: physicochemical
peritonitis = conditions: in vivo; cited from earlier work
[2] = Forced degradation studies on AP1189 at low pH; assay type: physicochemical; conditions: within 24 hours
[3] = Chemical stability of AP1189 suspension in Syrspend SF Alka, HPLC; assay type: physicochemical; conditions: room temp.; for Total Impurities (% Area) Initial / Total Impurities (% Area) T = 30 min / Total Impurities (% Area) T = 60 min / Total Impurities (% Area) T = 90 min: Syrspend SF Alka
Experimental: An experiment was conducted at lowest (15 mg) and highest (400 mg) dose strength to assess the dispersability and physical stability of the suspension. Chemical stability of the suspension was assessed by HPLC for 90 minutes at every 30 minutes interval.

MC1R = conditions: cited from earlier work
MC3R = conditions: cited from earlier work
[4] = tested on: experimental inflammatory arthritis; conditions: in vivo; cited from earlier work
[5] = Stability of AP1189 in Ora-Sweet and Ora-Sweet SF, HPLC; assay type: physicochemical; conditions: 20 mg/ml suspension, pH 4.25, T=0
Experimental: Stability of AP1189 in Ora-Sweet and Ora-Sweet SF was tested.

primary macrophages = conditions: cited from earlier work
melanocytes = conditions: cited from earlier work
[6] = buffer pH 1.2, fully dissolved, succinate 0.5 h
Experimental: As a result, the pH was adjusted to 1.2 with concentrated hydrochloric acid in both solutions. Both sample preparations were diluted 500 times with the sample diluent (acetonitrile:water 1:1 v/v).

CC1(C)C2CCC1(CS(=O)(=O)O)C(=O)C2 (stereo not shown)
Solubility HCI/KCI Buffer 0.5 M pH 1.2 [1]: <15 mM

NC(N)=N/N=C/C=C/c1cccn1-c1ccccc1[N+](=O)[O-] [AP1189, (E)-N-[1-(2-nitrophenyl)-1-H-pyrrole-2-yl-allylideneamino]-guanidine]
actions in peritonitis (peritonitis): elicit anti-inflammatory actions
degradation at low pH [2]: at least 20%
stability in Syrspend SF Alka (in words) ([3]; 90 minutes): stable
Total Impurities (% Area) Initial ([3]; dose strength 15 mg): 0.89* % Area
Total Impurities (% Area) T = 30 min ([3]; dose strength 15 mg): 0.94* % Area
Total Impurities (% Area) T = 60 min ([3]; dose strength 15 mg): 0.88* % Area
Total Impurities (% Area) T = 90 min ([3]; dose strength 15 mg): 0.87* % Area
Total Impurities (% Area) Initial ([3]; dose strength 400 mg): 0.45 % Area
Total Impurities (% Area) T = 30 min ([3]; dose strength 400 mg): 0.45 % Area
Total Impurities (% Area) T = 60 min ([3]; dose strength 400 mg): 0.45 % Area
Total Impurities (% Area) T = 90 min ([3]; dose strength 400 mg): 0.45 % Area
ERK1/2 phosphorylation (MC1R): cause ERK1/2 phosphorylation
canonical cAMP generation (MC1R): does not induce canonical cAMP generation
characterisation at MC1R (MC1R): biased agonist
ERK1/2 phosphorylation (MC3R): cause ERK1/2 phosphorylation
canonical cAMP generation (MC3R): does not induce canonical cAMP generation
characterisation at MC3R (MC3R): biased agonist
macroscopic and histological parameters of joint disruption [4]: significantly reduce
AP1189 degradation in Ora-Sweet SF, Initial [5]: <LOQ
cytokine release in macrophages (primary macrophages): reduce cytokine release
efferocytosis in primary macrophages (primary macrophages): proefferocytic effect
melanogenesis in melanocytes (melanocytes): no melanogenesis was induced

(E)-N-[1-(2-nitrophenyl)-1-H-pyrrole-2-yl-allylideneamino]-guanidinium acetate [AP1189 acetate]
Determined concentration in pH 1.2 samples ([6]; acetate 5 h): >223 mg/mL
Determined concentration in pH 1.2 samples ([6]; time in cell: acetate 5 h): >617 mM (5 h)
